Results reported in patent US20220202882A1, “EFFECT OF COMBINATION OF BIFIDOBACTERIUM AND BERBERINE ON PRE-DIABETES AND TYPE 2 DIABETES” (The Fourth Military Medical University, priority 2018, published 2022).
Where a name gives a salt, the structure may show the parent alone.

Tested on: pre-diabetic and type 2 diabetes mellitus patients
Assay: Clinical trial: ketone level in urine
Assay type: in vivo, human
Settings: for Effect on urine ketone body level (in words) / Post-treatment ketone level in urine - pre-treatment ketone level in urine, mean value: 16 weeks of treatment; for Post-treatment ketone level in urine - pre-treatment ketone level in urine, mean value / Post-treatment ketone level in urine, mean value / Pre-treatment ketone level in urine, mean value: FAS; for Post-treatment ketone level in urine, mean value: after 16 weeks of treatment; for Pre-treatment ketone level in urine, mean value: baseline before treatment
Experimental: From June 2015 to October 2018, a double-blind, randomized, and parallel-controlled trial, studying the effects of the combined use of Bifidobacterium and berberine on pre-diabetic and type 2 diabetes mellitus patients, was conducted in 10 research centers in Xi'an, Yan'an and Shangluo of Shaanxi province, etc., including the First Affiliated Hospital of the Fourth Military Medical University. The trial included an enrollment stage of 2 weeks and a treatment stage of 16 weeks. After passing the first visit 1 (see V1 in Table 1), the subjects entered the enrollment stage, i.e., 2 weeks of lifestyle intervention, followed by a re-screening (see V2 in Table 1). The subjects were subjected to a 16-week course of treatment after passing the screening. See Table 1 for the detailed screening parameters. After the enrollment stage, the baseline data of the 300 successfully enrolled subjects were collected. Meanwhile, the subjects started to receive lifestyle guidance, and were randomly divided into four groups for 16 weeks of treatments. 1) Bifidobacterium group: the subjects were administered with Bifidobacterium capsules (Livzon Pharmaceutical Group Inc., batch no.: 20141013), 0.35 g/capsule, each capsule containing 50,000,000 viable bacteria (Bifidobacterium adolescentis DM8504), 2 capsules/time, 2 times/day, plus berberine placebo tablets (Northeast Pharma Group Shenyang First Pharma Co., Ltd., Lot no.: 20150101, containing 80.2% microcrystalline cellulose, 9.4% pregelatinized starch, 6.4% sodium carboxymethyl starch, 1% magnesium stearate, and 3% copovidone), 0.1 g/tablet, 5 tablets/time, 2 times/day. 2) Berberine group: the subjects were administered with berberine tablets (Northeast Pharma Group Shenyang First Pharma Co., Ltd., Lot no.: 130917, each tablet weighted 0.165 g and contained 0.1 g active berberine ingredient (berberine hydrochloride), with the same excipients as the placebo tablets), 5 tablets/time, 2 times/day, plus Bifidobacterium placebo capsules (Livzon Pharmaceutical Group Inc., Lot no.: 141001, specifically containing 0.348 g spray-dried lactose, and 0.002 g magnesium stearate), 0.35 g/capsule, 2 capsules/time, 2 times/day. 3) Combination Group: the subjects were administered with Bifidobacterium capsules, 0.35 g/capsule, each capsule containing 50,000,000 viable bacteria (B. adolescentis DM8504), 2 capsules/time, 2 times/day, plus berberine tablets, 0.1 g/tablet, each tablet containing 0.1 g active berberine ingredient (berberine hydrochloride), 5 tablets/time, 2 times/day. 4) Control group: the subjects were administered with Bifidobacteria placebo capsules, 0.35 g/capsule, 2 capsules/time, 2 times/day, plus berberine placebo tablets, 0.1 g/tablet, 5 tablets/time, 2 times/day. Bifidobacterium capsules were taken after meals and berberine tablets were taken before meals. Tests of all samples in the study were carried out in a designated laboratory with standardized criteria. Blood analysis covered hundreds of indicators including insulin, amino acids, cytokines etc. After the sample testing was finished, 1) Chi-Squared test and t-test were used to evaluate the intergroup balance of the baseline data including the demographic characteristics and pre-treatment indicators, wherein the baseline data referred to those collected at the second visit, before the formal administration, the data collected at the first visit on the enrollment stage were used instead if the data at the second visit was lacking; 2) two-way disordered CM-CH11, Kruska-Wilcox test, etc. were used for analysis and intergroup comparison of pre- and post-treatment indicators such as fasting plasma glucose (FPG), HbA1c, plasma glucose at 2 hours post OGTT (2-h PPG), blood pressure, blood lipids, body weight and BMI; 3) adverse events and hypoglycemia events were described in terms of the type, frequency and relevance with the drugs, for safety evaluation. Software SAS 9.1.3 was used for statistical analysis with all analysis processes being programmed. […]

| Molecule | Effect on urine ketone body level (in words) | Post-treatment ketone level in urine - pre-treatment ketone level in urine, mean value | Post-treatment ketone level in urine, mean value | Pre-treatment ketone level in urine, mean value |
| --- | --- | --- | --- | --- |
| Bifidobacterium | not observed | −0.0909 | 0.0341 | 0.1100 |
| COc1ccc2cc3[n+](cc2c1OC)CCc1cc2c(cc1-3)OCO2 [Berberine, berberine hydrochloride] | not observed | 0.0526 | 0.0513 | 0.0000 |
